Results reported in PubChem BioAssay (NCI).
Where “and” joins values, the source holds several entries; their conditions need not be identical. Equal values may be shown once.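 In this assay, cells in 96-well plates receive the compound at five concentrations for 48 hours. Endpoints are linearly interpolated between the surrounding concentrations. Here, GI50 denotes the concentration required for 50% inhibition of growth. The concentration for full growth arrest is given as TGI.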

Legend:
Experiment in all cases: DTP human tumour cell line panel, 48 h
HCT-116 colon = tested on: HCT-116 colon
786-0 renal = tested on: 786-0 renal
MDA-MB-435 = tested on: MDA-MB-435
OVCAR-5 ovarian = tested on: OVCAR-5 ovarian
EKVX NSCLC = tested on: EKVX NSCLC
SK-OV-3 ovarian = tested on: SK-OV-3 ovarian
HOP-92 NSCLC = tested on: HOP-92 NSCLC
A549 NSCLC = tested on: A549 NSCLC
UACC-257 melanoma = tested on: UACC-257 melanoma
SN12C renal = tested on: SN12C renal
SNB-78 CNS = tested on: SNB-78 CNS
T-47D breast = tested on: T-47D breast
TK-10 renal = tested on: TK-10 renal
HT29 colon = tested on: HT29 colon
XF 498 CNS = tested on: XF 498 CNS
LXFL 529 NSCLC = tested on: LXFL 529 NSCLC
NCI/ADR-RES ovarian = tested on: NCI/ADR-RES ovarian
CAKI-1 renal = tested on: CAKI-1 renal
HOP-62 NSCLC = tested on: HOP-62 NSCLC
UACC-62 melanoma = tested on: UACC-62 melanoma
HCT-15 colon = tested on: HCT-15 colon
HCC-2998 colon = tested on: HCC-2998 colon
SW-620 colon = tested on: SW-620 colon
HL-60(TB) leukemia = tested on: HL-60(TB) leukemia
NCI-H23 lung = tested on: NCI-H23 lung
MDA-MB-231 breast = tested on: MDA-MB-231 breast
SNB-75 CNS = tested on: SNB-75 CNS
KM20L2 colon = tested on: KM20L2 colon
DLD-1 colon = tested on: DLD-1 colon
NCI-H460 lung = tested on: NCI-H460 lung
CCRF-CEM leukemia = tested on: CCRF-CEM leukemia
RPMI-8226 leukemia = tested on: RPMI-8226 leukemia
SR leukemia = tested on: SR leukemia
M14 melanoma = tested on: M14 melanoma
SF-539 CNS = tested on: SF-539 CNS
M19-MEL melanoma = tested on: M19-MEL melanoma
KM12 colon = tested on: KM12 colon
UO-31 renal = tested on: UO-31 renal
SK-MEL-5 melanoma = tested on: SK-MEL-5 melanoma
IGROV1 ovarian = tested on: IGROV1 ovarian
DU-145 prostate = tested on: DU-145 prostate
OVCAR-4 ovarian = tested on: OVCAR-4 ovarian
K-562 leukemia = tested on: K-562 leukemia
SNB-19 CNS = tested on: SNB-19 CNS
MALME-3M melanoma = tested on: MALME-3M melanoma
U251 CNS = tested on: U251 CNS
COLO 205 colon = tested on: COLO 205 colon
SK-MEL-28 melanoma = tested on: SK-MEL-28 melanoma
BT-549 breast = tested on: BT-549 breast
DMS 273 small cell lung = tested on: DMS 273 small cell lung
ACHN renal = tested on: ACHN renal
RXF 393 renal = tested on: RXF 393 renal
MOLT-4 leukemia = tested on: MOLT-4 leukemia
A498 renal = tested on: A498 renal
SF-295 CNS = tested on: SF-295 CNS
HS 578T breast = tested on: HS 578T breast
PC-3 prostate = tested on: PC-3 prostate
SK-MEL-2 melanoma = tested on: SK-MEL-2 melanoma

CN(C)c1ccc(C(=C2C=CC(=[N+](C)C)C=C2)c2ccc(N(C)C)cc2)cc1
GI50 (HCT-116 colon): 36.3 nM
TGI (HCT-116 colon): 360 nM
GI50 (786-0 renal): 187 nM
TGI (786-0 renal): 709 nM and 1170 nM
GI50 (MDA-MB-435): 152 nM
TGI (MDA-MB-435): 431 nM
GI50 (OVCAR-5 ovarian): 295 nM
TGI (OVCAR-5 ovarian): 1170 nM and 578 nM
GI50 (EKVX NSCLC): 149 nM
TGI (EKVX NSCLC): 1410 nM and 1500 nM
GI50 (SK-OV-3 ovarian): 268 nM
TGI (SK-OV-3 ovarian): 860 nM and 718 nM
GI50 (HOP-92 NSCLC): 145 nM
TGI (HOP-92 NSCLC): 461 nM
TGI (A549 NSCLC): 1200 nM and 2480 nM
GI50 (UACC-257 melanoma): 228 nM
TGI (UACC-257 melanoma): 763 nM and 416 nM
GI50 (SN12C renal): 40 nM
TGI (SN12C renal): 1430 nM and 902 nM
TGI (SNB-78 CNS): 5670 nM
GI50 (T-47D breast): 157 nM
TGI (T-47D breast): 1120 nM
GI50 (TK-10 renal): 162 nM
TGI (TK-10 renal): 864 nM
GI50 (HT29 colon): 36.3 nM
TGI (HT29 colon): 158 nM
TGI (XF 498 CNS): 193 nM
TGI (LXFL 529 NSCLC): 1030 nM
GI50 (NCI/ADR-RES ovarian): 410 nM
TGI (NCI/ADR-RES ovarian): 2000 nM
GI50 (CAKI-1 renal): 249 nM
TGI (CAKI-1 renal): 788 nM and 2430 nM
GI50 (HOP-62 NSCLC): 44.7 nM
TGI (HOP-62 NSCLC): 1110 nM and 2430 nM
GI50 (UACC-62 melanoma): 261 nM
TGI (UACC-62 melanoma): 1000 nM
TGI (HCT-15 colon): 1350 nM and 1260 nM
GI50 (HCC-2998 colon): 194 nM
TGI (HCC-2998 colon): 1170 nM and 934 nM
GI50 (SW-620 colon): 69.3 nM
TGI (SW-620 colon): 1230 nM
GI50 (HL-60(TB) leukemia): 160 nM
TGI (HL-60(TB) leukemia): 493 nM and 173 nM
TGI (NCI-H23 lung): 370 nM
GI50 (MDA-MB-231 breast): 246 nM
TGI (MDA-MB-231 breast): 1260 nM
GI50 (SNB-75 CNS): 112 nM
TGI (SNB-75 CNS): 581 nM and 1030 nM
TGI (KM20L2 colon): 938 nM
TGI (DLD-1 colon): 1740 nM
TGI (NCI-H460 lung): 1550 nM
TGI (CCRF-CEM leukemia): 832 nM
GI50 (RPMI-8226 leukemia): 35.8 nM
TGI (RPMI-8226 leukemia): 165 nM and 163 nM
GI50 (SR leukemia): 59.1 nM
TGI (SR leukemia): 672 nM and 3200 nM
GI50 (M14 melanoma): 140 nM
TGI (M14 melanoma): 598 nM and 1390 nM
GI50 (SF-539 CNS): 190 nM
TGI (SF-539 CNS): 1030 nM and 1230 nM
TGI (M19-MEL melanoma): 1410 nM
GI50 (KM12 colon): 78.1 nM
TGI (KM12 colon): 397 nM and 930 nM
GI50 (UO-31 renal): 284 nM
TGI (UO-31 renal): 1230 nM and 1010 nM
GI50 (SK-MEL-5 melanoma): 162 nM
TGI (SK-MEL-5 melanoma): 324 nM and 214 nM
GI50 (IGROV1 ovarian): 264 nM
TGI (IGROV1 ovarian): 2260 nM and 1400 nM
GI50 (DU-145 prostate): 78.3 nM
TGI (DU-145 prostate): 1230 nM
TGI (OVCAR-4 ovarian): 1050 nM
TGI (K-562 leukemia): 1100 nM and 143 nM
GI50 (SNB-19 CNS): 222 nM
TGI (SNB-19 CNS): 1480 nM and 1710 nM
GI50 (MALME-3M melanoma): 216 nM
TGI (MALME-3M melanoma): 879 nM and 773 nM
GI50 (U251 CNS): 46.2 nM
TGI (U251 CNS): 565 nM and 1140 nM
GI50 (COLO 205 colon): 97.4 nM
TGI (COLO 205 colon): 447 nM and 751 nM
GI50 (SK-MEL-28 melanoma): 219 nM
TGI (SK-MEL-28 melanoma): 1090 nM and 1900 nM
GI50 (BT-549 breast): 180 nM
TGI (BT-549 breast): 621 nM
TGI (DMS 273 small cell lung): 1150 nM
GI50 (ACHN renal): 253 nM
TGI (ACHN renal): 1170 nM and 1010 nM
GI50 (RXF 393 renal): 113 nM
TGI (RXF 393 renal): 468 nM and 695 nM
GI50 (MOLT-4 leukemia): 297 nM
TGI (MOLT-4 leukemia): 2410 nM and 543 nM
GI50 (A498 renal): 145 nM
TGI (A498 renal): 622 nM
TGI (SF-295 CNS): 244 nM and 885 nM
GI50 (HS 578T breast): 87.5 nM
TGI (HS 578T breast): 2820 nM
GI50 (PC-3 prostate): 178 nM
TGI (PC-3 prostate): 963 nM
TGI (SK-MEL-2 melanoma): 472 nM and 482 nM
